Assay results from PubChem BioAssay (NCI).
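Step 1: Grow cells in 96-well plates. Step 2: Expose to compound for 48 hours at 5 concentrations. Step 3: Interpolate endpoints linearly; if unreached, use highest concentration. At the GI50, growth is halved. The concentration for full growth arrest is given as TGI.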

What was measured:
Test in all cases: growth of human tumour cells (NCI), 48 h
HOP-62 NSCLC = tested on: HOP-62 NSCLC
K-562 leukemia = tested on: K-562 leukemia
M14 melanoma = tested on: M14 melanoma
MDA-MB-435 = tested on: MDA-MB-435
NCI-H522 lung = tested on: NCI-H522 lung
NCI/ADR-RES ovarian = tested on: NCI/ADR-RES ovarian
OVCAR-3 ovarian = tested on: OVCAR-3 ovarian
SF-268 CNS = tested on: SF-268 CNS
SK-MEL-5 melanoma = tested on: SK-MEL-5 melanoma
SR leukemia = tested on: SR leukemia

Work on `CN(CC(N)=O)C(=O)N(CCCl)N=O` yielded a TGI (HOP-62 NSCLC) of over 100 µM, a TGI (K-562 leukemia) of over 100 µM and a TGI (M14 melanoma) of over 100 µM. It also gave a TGI (MDA-MB-435) of over 100 µM, a TGI (NCI-H522 lung) of over 100 µM and a TGI (NCI/ADR-RES ovarian) of over 100 µM. It also gave a TGI (OVCAR-3 ovarian) of over 100 µM, a TGI (SF-268 CNS) of over 100 µM and a TGI (SK-MEL-5 melanoma) of over 100 µM. It also gave a TGI (SR leukemia) of over 100 µM.
`N#Cc1c(N)[nH]c2ccc(Sc3ccccc3)cc12` showed a TGI (HOP-62 NSCLC) of 20.5 µM, a TGI (K-562 leukemia) of 9.71 µM and a TGI (M14 melanoma) of 3.5 µM. It also gave a TGI (MDA-MB-435) of 0.146 µM, a TGI (NCI-H522 lung) of 3.21 µM and a TGI (NCI/ADR-RES ovarian) of 10.2 µM. It also gave a TGI (OVCAR-3 ovarian) of 15.8 µM, a TGI (SF-268 CNS) of 15.4 µM and a TGI (SK-MEL-5 melanoma) of 4.43 µM. It also gave a TGI (SR leukemia) of 6.25 µM.
`Cc1ccc(NC(=O)c2ccccc2C(=O)O)cc1C` was tested, and the TGI (HOP-62 NSCLC) was over 100 µM, the TGI (K-562 leukemia) was over 100 µM and the TGI (M14 melanoma) was over 100 µM. It also gave a TGI (MDA-MB-435) of over 100 µM, a TGI (NCI-H522 lung) of over 100 µM and a TGI (NCI/ADR-RES ovarian) of over 100 µM. The TGI (OVCAR-3 ovarian) was over 100 µM, the TGI (SF-268 CNS) was over 100 µM and the TGI (SK-MEL-5 melanoma) was over 100 µM. For the same compound, the TGI (SR leukemia) was over 100 µM.
`Cn1cc(-c2nonc2-c2cn(C)c3ccccc23)c2ccccc21` showed a GI50 (HOP-62 NSCLC) of 1250 nM, a TGI (HOP-62 NSCLC) of over 72.7 µM and a GI50 (K-562 leukemia) of 342 nM. The TGI (K-562 leukemia) was over 100 µM, the GI50 (M14 melanoma) was 469 nM and the TGI (M14 melanoma) was over 100 µM. For the same compound, the GI50 (MDA-MB-435) was 228 nM, the TGI (MDA-MB-435) was 0.635 µM and the GI50 (NCI-H522 lung) was 0.402 µM. For the same compound, the TGI (NCI-H522 lung) was over 100 µM, the GI50 (NCI/ADR-RES ovarian) was 0.626 µM and the TGI (NCI/ADR-RES ovarian) was over 100 µM. It also gave a GI50 (OVCAR-3 ovarian) of 402 nM, a TGI (OVCAR-3 ovarian) of 3.42 µM and a GI50 (SF-268 CNS) of 1.6 µM. It also gave a TGI (SF-268 CNS) of over 100 µM, a GI50 (SK-MEL-5 melanoma) of 1340 nM and a TGI (SK-MEL-5 melanoma) of over 100 µM. The GI50 (SR leukemia) was 406 nM and the TGI (SR leukemia) was over 100 µM.
`Cn1cncc1CC1COC(=O)C1C(O)c1ccccc1` (stereo not given) was tested, and the TGI (HOP-62 NSCLC) was over 100 µM, the TGI (K-562 leukemia) was over 100 µM and the TGI (M14 melanoma) was over 100 µM. The TGI (MDA-MB-435) was over 100 µM, the TGI (NCI-H522 lung) was over 100 µM and the TGI (NCI/ADR-RES ovarian) was over 100 µM. The TGI (OVCAR-3 ovarian) was over 100 µM, the TGI (SF-268 CNS) was over 100 µM and the TGI (SK-MEL-5 melanoma) was over 100 µM. The TGI (SR leukemia) was over 100 µM.
`COc1ccc(-c2cc(=O)c3c(OC)c(OC)c(OC)c(OC)c3o2)cc1` gave a TGI (HOP-62 NSCLC) of over 100 µM, a TGI (K-562 leukemia) of over 100 µM and a TGI (M14 melanoma) of over 100 µM. It also gave a TGI (MDA-MB-435) of over 100 µM, a TGI (NCI-H522 lung) of 66.5 µM and a TGI (NCI/ADR-RES ovarian) of over 100 µM. For the same compound, the TGI (OVCAR-3 ovarian) was over 100 µM, the TGI (SF-268 CNS) was over 100 µM and the TGI (SK-MEL-5 melanoma) was over 100 µM. It also gave a TGI (SR leukemia) of over 100 µM.
`C[C@@H]1O[C@@H](O[C@H]2CC[C@@]3(C)[C@H](CCC4[C@@H]3C(O)C[C@]3(C)[C@@H](c5ccc(=O)oc5)CC[C@]43O)C2)[C@H](O)[C@H](O)[C@H]1O` (stereo not given in full) was tested, and the GI50 (HOP-62 NSCLC) was 3.89 nM, the TGI (HOP-62 NSCLC) was 0.0057 µM and the GI50 (K-562 leukemia) was 9.84 nM. For the same compound, the TGI (K-562 leukemia) was 0.879 µM, the GI50 (M14 melanoma) was 6.09 nM and the TGI (M14 melanoma) was 0.0148 µM. The GI50 (MDA-MB-435) was 6.33 nM, the TGI (MDA-MB-435) was 0.0131 µM and the GI50 (NCI-H522 lung) was under 0.00325 µM. The TGI (NCI-H522 lung) was 0.0035 µM, the GI50 (NCI/ADR-RES ovarian) was under 0.00325 µM and the TGI (NCI/ADR-RES ovarian) was 0.00578 µM. The GI50 (OVCAR-3 ovarian) was 4.31 nM, the TGI (OVCAR-3 ovarian) was 0.00597 µM and the GI50 (SF-268 CNS) was under 0.00325 µM. The TGI (SF-268 CNS) was 0.00502 µM, the GI50 (SK-MEL-5 melanoma) was 5.61 nM and the TGI (SK-MEL-5 melanoma) was 0.0107 µM. The GI50 (SR leukemia) was 3.88 nM and the TGI (SR leukemia) was 0.0109 µM.
`N/N=C1\CC(=O)NC(=O)N1` gave a TGI (HOP-62 NSCLC) of over 100 µM, a TGI (K-562 leukemia) of over 100 µM and a TGI (M14 melanoma) of over 100 µM. The TGI (MDA-MB-435) was over 100 µM, the TGI (NCI-H522 lung) was over 100 µM and the TGI (NCI/ADR-RES ovarian) was over 100 µM. It also gave a TGI (OVCAR-3 ovarian) of over 100 µM, a TGI (SF-268 CNS) of over 100 µM and a TGI (SK-MEL-5 melanoma) of over 100 µM. For the same compound, the TGI (SR leukemia) was over 100 µM.
For `CCn1c2ccccc2c2cc(/C=C(/C#N)C(N)=O)ccc21`, the GI50 (HOP-62 NSCLC) was 4810 nM, the TGI (HOP-62 NSCLC) was 41.8 µM and the GI50 (K-562 leukemia) was 4490 nM. It also gave a TGI (K-562 leukemia) of over 100 µM, a GI50 (M14 melanoma) of 13400 nM and a TGI (M14 melanoma) of over 83.6 µM. It also gave a GI50 (MDA-MB-435) of 2530 nM, a TGI (MDA-MB-435) of 18.4 µM and a GI50 (NCI-H522 lung) of 11.7 µM. It also gave a TGI (NCI-H522 lung) of over 100 µM, a GI50 (NCI/ADR-RES ovarian) of 11.2 µM and a TGI (NCI/ADR-RES ovarian) of 88.1 µM. The GI50 (OVCAR-3 ovarian) was 3430 nM, the TGI (OVCAR-3 ovarian) was 19.1 µM and the GI50 (SF-268 CNS) was 19.9 µM. The TGI (SF-268 CNS) was over 100 µM, the GI50 (SK-MEL-5 melanoma) was 8500 nM and the TGI (SK-MEL-5 melanoma) was 54.2 µM. The GI50 (SR leukemia) was 3540 nM and the TGI (SR leukemia) was over 100 µM.
`CCOc1nc(N)nc(C)c1N=Nc1ccc(Cl)cc1` was tested, and the TGI (HOP-62 NSCLC) was over 100 µM, the TGI (K-562 leukemia) was over 100 µM and the TGI (M14 melanoma) was over 100 µM. For the same compound, the TGI (MDA-MB-435) was over 100 µM, the TGI (NCI-H522 lung) was over 100 µM and the TGI (NCI/ADR-RES ovarian) was over 100 µM. It also gave a TGI (OVCAR-3 ovarian) of over 100 µM, a TGI (SF-268 CNS) of over 100 µM and a TGI (SK-MEL-5 melanoma) of over 100 µM. For the same compound, the TGI (SR leukemia) was 23.9 µM.
Work on `CC(=O)Oc1ccccc1C(=O)/C=C/c1cccc([N+](=O)[O-])c1` yielded a GI50 (HOP-62 NSCLC) of 2500 nM, a TGI (HOP-62 NSCLC) of 7.8 µM and a GI50 (K-562 leukemia) of 3140 nM. For the same compound, the TGI (K-562 leukemia) was over 100 µM, the GI50 (M14 melanoma) was 3930 nM and the TGI (M14 melanoma) was 14 µM. The GI50 (MDA-MB-435) was 1650 nM, the TGI (MDA-MB-435) was 3.55 µM and the GI50 (NCI-H522 lung) was 15.3 µM. For the same compound, the TGI (NCI-H522 lung) was 36.3 µM, the GI50 (NCI/ADR-RES ovarian) was 3.88 µM and the TGI (NCI/ADR-RES ovarian) was 18.7 µM. For the same compound, the GI50 (OVCAR-3 ovarian) was 2600 nM, the TGI (OVCAR-3 ovarian) was 6.17 µM and the GI50 (SF-268 CNS) was 3.58 µM. It also gave a TGI (SF-268 CNS) of 12.4 µM, a GI50 (SK-MEL-5 melanoma) of 3030 nM and a TGI (SK-MEL-5 melanoma) of 9.07 µM. It also gave a GI50 (SR leukemia) of 2250 nM and a TGI (SR leukemia) of 7.7 µM.
